Measured values as given in patent US10894805B2, “Prodrugs of the selective progesterone receptor modulator (SPRM) (11β,17β)-17-Hydroxy-11-[4-(methylsulphonyl)phenyl] -17-(pentafluoroethyl)estra-4,9-dien-3-one” (BAYER PHARMA AKTIENGESELLSCHAFT, priority 2016, dated 2021).
One block for each compound: values may come before it.

Columns and labels:
recombinant human CYP3A4 = recombinant human CYP3A4 (Homo sapiens, UniProt P08684); test: In vitro metabolism of 14C-labeled Compound 1 in recombinant human CYP3A4 enzyme; type: in vitro ADME
Description: Recombinant human CYP3A4 was incubated with (3α,11β,17β)-11-[4-(^14C-methylsulfonyl)phenyl]-17-(pentafluoroethyl)estra-4,9-diene-3,17-diol (Compound 1).
The incubation mixture containing buffer, reconstituting system and CYP3A4 protein was prepared and given into a 37° C. shaking water bath. Incubation was started by the addition of the solution containing (3α,11β,17β)-11-[4-(methylsulfonyl)phenyl]-17-(pentafluoroethyl)estra-4,9-diene-3,17-diol (Compound 1). The samples were incubated at 37° C. in a continuously operating shaking water bath. 200 μL of the incubation mixture were removed after incubation time and the reaction was stopped by the addition of 120 μL acetonitrile on an ice bath. The stopped incubations were centrifuged for 10 minutes at 12000 rpm (7° C.). After removing of the supernatant from the protein pellet the supernatant was stored at −20° C. until they were subsequently analysed. 50 μL of the supernatants was examined by chromatography and detected by radiometry and mass spectrometry.

[1] = Plasma concentrations and pharmacokinetic parameters of Compounds 1 and 2 in rats after oral Compound 1; type: in vivo, rat; settings: for Cmax: po
Description: Under the same conditions as described in Example 2 three single dosages of Compound 1 (0.2, 1.0 and 5 mg/kg/day) were administered to rats. Blood samples were taken from the rats at several time-points (1, 2, 4, 7 and 24 h, N=3 animals at each time-point), to allow for calculation of AUC (0-24) and Cmax of compound 1 and compound 2 in rat plasma. The plasma samples were stored at −15° C. until analysis. Compound 1 and 2 were determined in plasma after protein precipitation with acetonitrile containing the internal standards for compound 1 and compound 2. The supernatant was analyzed by separation employing high-pressure liquid chromatography and tandem mass spectrometric detection. The lower limit of quantitation (LLOQ) for Compound 1 was 1.00 μg/L, the linear range between 1.00 and 200 μg/L. The lower limit of quantitation (LLOQ) for Compound 2 was 0.200 μg/L, the linear range between 0.200 and 200 μg/L. A sample volume of 0.1 mL plasma was used. The precision for Compound 1 ranged between 0.97 and 3.73%, accuracy between 99.8 and 101.3%, for Compound 2 precision ranged between 2.01 and 6.19%, accuracy between 92.3 and 96.6% calculated from the study quality control samples.

[2] = In vitro metabolism of 14C-labeled Compound 1 in human liver microsomes; type: in vitro ADME
Description: Human liver microsomes were incubated with (3α,11β,17β)-11-[4-(^14C-methylsulfonyl)phenyl]-17-(pentafluoroethyl)estra-4,9-diene-3,17-diol (Compound 1).
(§1) The incubation mixture containing buffer, reconstituting system and microsomal protein was preincubated at 37° C. for 3 min. Incubation was started by the addition of the solution containing (3α,11β,17β)-11-[4-(methylsulfonyl)phenyl]-17-(pentafluoroethyl)estra-4,9-diene-3,17-diol (Compound 1). The samples were incubated at 37° C. in a continuously operating shaking water bath. The incubation reaction was stopped by the addition of 160 μL acetonitrile. The stopped incubations were centrifuged for 10 minutes at 13000 rpm (4° C.) and stored at −18° C. until they were subsequently analysed. 50 μL of the supernatant was examined by chromatography and detected by radiometry and mass spectrometry.

[3] = molecular target: T1, human progesterone receptor A (Homo sapiens, UniProt P06401); test: PR-A transactivation assay in SK-N-MC cells (method as described in WO2011/009531); type: cell-based
T1 construct: expressed in transfected cells; host or cells: SK-N-MC (human neuroblastoma cells), stably transfected
T1 sequence (P06401 1-769 isoform P06401-2): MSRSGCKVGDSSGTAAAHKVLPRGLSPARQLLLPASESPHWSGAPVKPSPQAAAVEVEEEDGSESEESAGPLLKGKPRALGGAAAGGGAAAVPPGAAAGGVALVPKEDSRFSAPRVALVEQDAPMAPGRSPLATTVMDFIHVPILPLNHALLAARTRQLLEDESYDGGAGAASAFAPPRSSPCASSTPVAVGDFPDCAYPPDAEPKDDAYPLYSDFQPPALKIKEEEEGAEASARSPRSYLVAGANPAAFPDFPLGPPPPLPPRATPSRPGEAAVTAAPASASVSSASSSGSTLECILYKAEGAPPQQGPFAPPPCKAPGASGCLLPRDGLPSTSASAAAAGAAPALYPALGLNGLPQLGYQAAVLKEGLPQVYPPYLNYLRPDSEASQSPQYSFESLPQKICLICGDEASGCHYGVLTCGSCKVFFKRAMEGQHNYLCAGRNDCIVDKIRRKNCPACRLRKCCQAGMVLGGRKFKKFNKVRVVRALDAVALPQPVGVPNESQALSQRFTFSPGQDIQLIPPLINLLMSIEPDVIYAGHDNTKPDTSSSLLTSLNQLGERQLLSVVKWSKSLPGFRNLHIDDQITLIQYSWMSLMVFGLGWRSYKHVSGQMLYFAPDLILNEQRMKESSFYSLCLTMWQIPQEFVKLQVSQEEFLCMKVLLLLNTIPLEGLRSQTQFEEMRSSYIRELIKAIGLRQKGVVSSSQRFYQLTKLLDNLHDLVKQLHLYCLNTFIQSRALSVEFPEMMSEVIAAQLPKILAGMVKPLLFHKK
Description: (§2) SK-N-MC cells (human neuroblastoma cells), which have been stably transfected with plasmids, which express the human progesterone receptor B ([…]) or the human progesterone receptor A (pRChPR-A-neo) and a reporter construct (pMMTV-LUC), were incubated for 24 hours either in the absence (negative control) or in the presence of increasing amounts of the respective Compound 2 (0.01 nmol/l, 0.1 nmol/l, 1 nmol/l, 10 nmol/l, 100 nmol/land […]), in order to determine the agonistic efficacy. As positive control of reporter gene induction, the cells were treated with the synthetic gestagen promegestone (0.01 nmol/l, 0.1 nmol/l, 1 nmol/l, 10 nmol/l, 100 nmol/l and […]). For determination of the antagonistic activity, the cells were treated with 0.1 nmol/l promegestone and additionally with increasing amounts of the respective test compound (0.01 nmol/l, 0.1 nmol/l, 1 nmol/l, 10 nmol/l, 100 nmol/l and […]). The activity of the LUC reporter gene (LUC=luciferase) was determined in the cell lysates and was measured as RLU (relative light units).

[4] = molecular target: T2, human progesterone receptor B (Homo sapiens, UniProt P06401); test: PR-B transactivation assay in SK-N-MC cells (method as described in WO2011/009531); type: cell-based
T2 construct: expressed in transfected cells; host or cells: SK-N-MC (human neuroblastoma cells), stably transfected
T2 sequence (P06401 1-933): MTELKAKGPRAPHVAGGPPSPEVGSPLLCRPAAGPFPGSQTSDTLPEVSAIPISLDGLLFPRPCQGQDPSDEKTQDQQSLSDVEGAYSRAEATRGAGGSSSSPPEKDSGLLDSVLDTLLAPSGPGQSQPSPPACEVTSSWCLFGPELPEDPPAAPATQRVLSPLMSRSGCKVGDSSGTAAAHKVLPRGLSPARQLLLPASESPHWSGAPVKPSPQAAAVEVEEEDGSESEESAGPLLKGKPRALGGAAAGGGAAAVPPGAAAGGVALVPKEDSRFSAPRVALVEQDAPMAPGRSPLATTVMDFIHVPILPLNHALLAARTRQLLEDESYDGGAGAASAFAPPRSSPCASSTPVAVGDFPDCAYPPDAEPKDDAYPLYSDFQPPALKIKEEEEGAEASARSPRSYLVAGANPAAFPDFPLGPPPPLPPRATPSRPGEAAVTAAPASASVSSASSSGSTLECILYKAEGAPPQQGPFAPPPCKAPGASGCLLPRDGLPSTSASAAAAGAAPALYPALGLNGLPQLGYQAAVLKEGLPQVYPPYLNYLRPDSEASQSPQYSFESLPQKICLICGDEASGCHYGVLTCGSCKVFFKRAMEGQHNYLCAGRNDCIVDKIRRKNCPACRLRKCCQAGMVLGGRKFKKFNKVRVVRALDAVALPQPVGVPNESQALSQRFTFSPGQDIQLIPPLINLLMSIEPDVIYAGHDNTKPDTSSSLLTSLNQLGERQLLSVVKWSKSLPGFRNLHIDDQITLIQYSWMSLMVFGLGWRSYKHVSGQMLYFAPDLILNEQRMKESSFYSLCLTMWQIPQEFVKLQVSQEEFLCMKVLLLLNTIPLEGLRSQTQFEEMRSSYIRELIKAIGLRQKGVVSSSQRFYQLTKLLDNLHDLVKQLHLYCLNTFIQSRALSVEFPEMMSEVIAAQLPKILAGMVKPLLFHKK
Description: as §2

[5] = In vitro metabolism of 14C-labeled Compound 2 in human liver cytosol; type: in vitro ADME
Description: Human liver cytosol was incubated with (11β,17β)-17-Hydroxy-11-[4-(methylsulphonyl)phenyl]-17-(pentafluoroethyl)estra-4,9-dien-3-one (Compound 2).
as §1, with “and cytosolic” for “and microsomal”, “containing (11β,17β)-17-Hydroxy-11-[4-(methylsulphonyl)phenyl]-17-(pentafluoroethyl)estra-4,9-dien-3-one” for “containing (3α,11β,17β)-11-[4-(methylsulfonyl)phenyl]-17-(pentafluoroethyl)estra-4,9-diene-3,17-diol”, “(Compound 2).” for “(Compound 1).”, “bath. 250 μL of the” for “bath. The”, “incubation mixture” for “incubation reaction”, “of 100” for “of 160”

Progesterone receptor = settings: DeManno et al., Steroids 68 (2003); cited from earlier work
[6] = Plasma concentrations of Compound 3 and its metabolite Compound 2 in rats; type: in vivo, rat
Description: Under the same conditions as described in Example 3, Compound 3 (5 mg/kg/day) was administered to female rats at a dose of 5 mg/kg. Blood samples were taken from the rats at several time-points (0.5, 1, 3, 6 h, N=3 animals at each time-point), to allow for calculation of AUC (0-inf) of compound 3 and compound 2 in rat plasma.
The plasma samples were stored at −15° C. until analysis. Compound 3 and compound 2 were determined in plasma after protein precipitation with acetonitrile containing the internal standards for compound 3 and compound 2. The supernatant was analyzed by separation employing high-pressure liquid chromatography and tandem mass spectrometric detection. AUC (0-inf) means Area Under the plasma Concentration vs. time curve (0-inf) from zero to infinity.

[7] = rat plasma, single p.o. dose of Compound 1, 0.2 mg/kg

recombinant human CYP3A4, sequence (P08684 whole entry): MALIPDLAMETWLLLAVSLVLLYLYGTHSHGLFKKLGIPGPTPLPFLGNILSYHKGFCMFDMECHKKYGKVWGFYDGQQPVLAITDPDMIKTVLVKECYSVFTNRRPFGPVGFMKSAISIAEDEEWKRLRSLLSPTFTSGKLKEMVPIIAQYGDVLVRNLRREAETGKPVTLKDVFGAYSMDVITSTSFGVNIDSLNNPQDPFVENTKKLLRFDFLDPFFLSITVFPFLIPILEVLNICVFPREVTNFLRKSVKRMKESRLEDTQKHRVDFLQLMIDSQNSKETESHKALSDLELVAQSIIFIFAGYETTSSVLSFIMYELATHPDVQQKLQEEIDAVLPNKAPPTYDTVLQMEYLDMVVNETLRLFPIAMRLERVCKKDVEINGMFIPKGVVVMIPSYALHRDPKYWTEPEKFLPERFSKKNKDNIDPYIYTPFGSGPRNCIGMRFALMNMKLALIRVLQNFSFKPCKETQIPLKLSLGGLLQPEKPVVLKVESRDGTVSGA

Compound: C[C@]12C[C@H](c3ccc(S(C)(=O)=O)cc3)C3=C4CC[C@@H](O)C=C4CC[C@H]3[C@@H]1CC[C@@]2(O)C(F)(F)C(F)(F)F [Compound 1, (3α,11β,17β)-11-[4-(methylsulfonyl)phenyl]-17-(pentafluoroethyl)estra-4,9-diene-3,17-diol]
proportion of Compound 1 compared to 0 hr sample (recombinant human CYP3A4; after 0.5 and 2 hours incubation with rhCYP3A4): marked decrease
Compound 2 formed in the incubation sample (recombinant human CYP3A4; incubation of Compound 1 with rhCYP3A4): large quantity
amount of compound 2 in the incubation sample (recombinant human CYP3A4; incubation of Compound 1 with rhCYP3A4, after 120 min): decreased remarkably
Compound 1 (% of 14C-radioactivity) (recombinant human CYP3A4; incubation time with rhCYP3A4 0 h): 82%
Compound 1 (% of 14C-radioactivity) (recombinant human CYP3A4; incubation time with rhCYP3A4 0.5 h): 52%
Compound 1 (% of 14C-radioactivity) (recombinant human CYP3A4; incubation time with rhCYP3A4 2 h): 2.7%
conversion into Compound 2 in rat ([1]; after oral Compound 1): almost completely converted
Cmax [1, 7]: < 1 ng/mL
Cmax ([1]; rat plasma, single p.o. dose of Compound 1, 1.0 mg/kg): 3.36 ng/mL
Cmax ([1]; rat plasma, single p.o. dose of Compound 1, 5.0 mg/kg): 12.9 ng/mL
Compound 1 Cmax [1, 7]: <1.00 ng/mL
maximum concentration of remaining compound 1 in rat plasma ([1]; single oral dose of Compound 1, 5.0 mg/kg): 12.9 µg/L
proportion of Compound 1 compared to 0 hr sample ([2]; 1 μM, 0.5 mg/mL protein, after 1 hours incubation): marked decrease
Compound 2 formed in the incubation sample ([2]; incubation of 1 μM Compound 1, after 1 hour): large quantity

Compound: COC[C@]1(OC)CC[C@H]2[C@@H]3CCC4=CC(=O)CCC4=C3[C@@H](c3ccc(/C=N/O)cc3)C[C@@]21C [Asoprisnil (J867), Asoprisnil]
Progesterone binding affinity, Relative molar Binding Affinity (RBA) (Progesterone receptor): about 299 % RBA

Compound: COC[C@]1(OC)CC[C@H]2[C@@H]3CCC4=CC(=O)CCC4=C3[C@@H](c3ccc(/C=N/O)cc3)C[C@@]21C [Compound J912]
Progesterone binding affinity, Relative molar Binding Affinity (RBA) (Progesterone receptor): about 165 % RBA

Now from value to compound:

agonistic activity on PR-A [3]: no agonistic activity
antagonism on PR-A [3]: very strong antagonist
agonistic activity on PR-B [4]: no agonistic activity
antagonism on PR-B [4]: very strong antagonist
proportion of Compound 2 compared to 0 hr sample ([5]; 10 μM, 1.0 mg/mL cytosolic protein, NADPH, after 1 and 4 hours): marked decrease
turnover of Compound 2 to Compound 1 in liver cytosol ([5]; absence of NADPH generating system as well as presence of NAD co-factor): No turnover
Compound 1 formed in the incubation sample ([5]; incubation of 10 μM Compound 2, after 1 and 4 hours): significant quantity
Compound: C[C@]12C[C@H](c3ccc(S(C)(=O)=O)cc3)C3=C4CCC(=O)C=C4CC[C@H]3[C@@H]1CC[C@@]2(O)C(F)(F)C(F)(F)F [Compound 2, (11β,17β)-17-Hydroxy-11-[4-(methylsulphonyl)phenyl]-17-(pentafluoroethyl)estra-4,9-dien-3-one]

conversion into Compound 2 in rat ([6]; after oral Compound 3): partially converted
AUC(0-inf) ([6]; po, rat plasma, single p.o. 5 mg/kg of Compound 3, female rats): 1240 ng·h/mL
Compound: C[C@]12C[C@H](c3ccc([S@](C)(=N)=O)cc3)C3=C4CCC(=O)C=C4CCC3C1CC[C@@]2(O)C(F)(F)C(F)(F)F (stereo partly drawn) [Compound 3, (11β,17β)-17-hydroxy-11-[4-(RS-methylsulphonimidoyl)phenyl]-17-(pentafluoroethyl)estra-4,9-dien-3-one]
